Target: Cathepsin S (Homo sapiens, UniProt P25774)
Assay: Inhibition Assay
Procedure: 5 μL of a human cathepsin S enzyme (R&D1183-CY-010) was added to a 96-well plate so as to be 20 ng/well.

Sequence of Cathepsin S (P25774 whole entry): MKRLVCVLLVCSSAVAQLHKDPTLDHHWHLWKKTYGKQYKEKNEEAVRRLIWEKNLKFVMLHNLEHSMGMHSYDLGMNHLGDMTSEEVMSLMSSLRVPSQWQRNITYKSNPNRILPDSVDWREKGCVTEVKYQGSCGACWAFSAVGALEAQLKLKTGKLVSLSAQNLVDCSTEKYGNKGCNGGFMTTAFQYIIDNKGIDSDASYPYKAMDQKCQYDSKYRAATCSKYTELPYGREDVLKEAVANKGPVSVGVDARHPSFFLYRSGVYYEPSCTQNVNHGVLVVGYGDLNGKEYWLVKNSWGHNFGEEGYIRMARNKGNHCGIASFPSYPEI

CN(C)C(=O)CN1CCC(CCOc2ccc(-c3nc(C#N)nc4c3ncn4C)cc2C(F)(F)F)CC1 [US9328118, 72] gave an IC50 of 1.6 nM.

Source: BindingDB's records for patent US9328118 (Astellas Pharma Inc, 2016)
